Measured values taken from US7223718B2, “Enhanced glyphosate herbicidal concentrates” (Falcon Lab LLC, priority 2005, dated 2007).

Test: Hygroscopicity: exposure to air on a balance for three days
Type: physicochemical
Conditions: exposed to air on a balance
Source text: A mechanical mixture of 10 gm. of dry, solid isopropylammonium glyphosate and 20 gm. of dry, solid ammonium pelargonate was made by thoroughly grinding and mixing the two solids to assure a homogeneous powder. The resulting 30 gm. was exposed to the air in a weighing dish on a balance to determine if the mixture was hygroscopic or dry. […] To this mixture was further added 3 gm. of powdered 85% potassium hydroxide and the solids again thoroughly mixed. This solid mixture contained the equivalent of 30% isopropylammonium glyphosate and 60% ammonium pelargonate, being a solid enhanced glyphosate herbicide concentrate.
A 50 gm. portion of a 53.8% glyphosate solution as the isopropylammonium salt (Monsanto Aquamaster®) was placed in a glass shallow evaporating dish. To this was added 10 gm. of 28-30% ammonium hydroxide and the solution thoroughly mixed by slowly tilting the dish. The dish was then exposed to air at ambient conditions for 2 weeks during which time the water evaporated off leaving a white crystalline solid weighing 38.9 gm. […] By the method it was prepared and the yield obtained it was determined to be the mixed salt ammonium, (isopropylammonium)glyphosate. The melting point was 200-205° C. (isopropyl ammonium glyphosate melts at 155-158° C.) The FT-IR spectrum in KBr is: […]

## ammonium, (isopropylammonium)glyphosate
  Hygroscopicity (weight change on exposure to air): non-hygroscopic
